According to publication PMC11880984, “Altered O‐glycosylation of β1‐adrenergic receptor N‐terminal single‐nucleotide variants modulates receptor processing and functional activity” (The Febs Journal, 2024):

Target: T1, hβ1AR (human β1-adrenergic receptor), WT S49 R389 (Homo sapiens, UniProt P08588)
T1 construct: gene ADRB1; full-length WT (S49, R389) with HA signal peptide, N-terminal MYC tag and C-terminal FLAG tag (pFT-SMMF); N-terminal part partly cleaved at R31/L32 in cells
Experiment: radioligand saturation binding, membranes of stable HEK293i cells

T1 sequence (P08588 whole entry G389R): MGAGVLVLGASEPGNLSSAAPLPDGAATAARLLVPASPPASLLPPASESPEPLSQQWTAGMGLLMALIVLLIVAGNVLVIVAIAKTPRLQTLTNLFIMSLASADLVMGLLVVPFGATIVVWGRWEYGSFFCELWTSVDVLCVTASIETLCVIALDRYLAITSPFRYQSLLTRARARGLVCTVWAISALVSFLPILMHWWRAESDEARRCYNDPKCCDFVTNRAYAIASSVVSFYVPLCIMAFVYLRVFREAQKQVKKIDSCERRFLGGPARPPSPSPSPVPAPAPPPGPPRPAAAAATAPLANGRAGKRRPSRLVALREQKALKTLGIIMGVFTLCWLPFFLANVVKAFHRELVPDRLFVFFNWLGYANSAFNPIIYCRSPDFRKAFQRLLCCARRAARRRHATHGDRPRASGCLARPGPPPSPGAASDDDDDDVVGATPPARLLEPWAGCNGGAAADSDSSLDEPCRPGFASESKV

- Kd: 0.42 ± 0.04 nM
Structure (SMILES): CCCc1ccccc1OCC(O)CNC(C)C (stereo not shown) [[^3H]dihydroalprenolol]
